Experimental data as given in patent US20250248998A1, “LRRK2 Inhibitors” (Brenig Therapeutics, Inc., priority 2022, published 2025).

Tests used:
LRRK2[G2019S] [1] = target: T1, LRRK2[G2019S] (Homo sapiens, UniProt Q5S007, G2019S); test: Cell-based NanoBRET target engagement assay in HEK293 cells transfected with LRRK2 (G2019S)-NanoLuc fusion vector; set-up: expressed in transfected cells; host or cells: HEK293 (ATCC); conditions: compound treatment 1 h
Procedure, shortened: (§1)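 HEK293 cells transiently transfected with NanoLuc-fused LRRK2 WT or G2019S (1 μg) plus carrier DNA, treated 1 h with compound (10-dose, 3-fold dilution from 1 μM). Target engagement read by NanoBRET; IC50 fitted only when signal at top concentration was below 5500.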
Target sequence in this assay (Q5S007 whole entry G2019S, the tested form may be a part): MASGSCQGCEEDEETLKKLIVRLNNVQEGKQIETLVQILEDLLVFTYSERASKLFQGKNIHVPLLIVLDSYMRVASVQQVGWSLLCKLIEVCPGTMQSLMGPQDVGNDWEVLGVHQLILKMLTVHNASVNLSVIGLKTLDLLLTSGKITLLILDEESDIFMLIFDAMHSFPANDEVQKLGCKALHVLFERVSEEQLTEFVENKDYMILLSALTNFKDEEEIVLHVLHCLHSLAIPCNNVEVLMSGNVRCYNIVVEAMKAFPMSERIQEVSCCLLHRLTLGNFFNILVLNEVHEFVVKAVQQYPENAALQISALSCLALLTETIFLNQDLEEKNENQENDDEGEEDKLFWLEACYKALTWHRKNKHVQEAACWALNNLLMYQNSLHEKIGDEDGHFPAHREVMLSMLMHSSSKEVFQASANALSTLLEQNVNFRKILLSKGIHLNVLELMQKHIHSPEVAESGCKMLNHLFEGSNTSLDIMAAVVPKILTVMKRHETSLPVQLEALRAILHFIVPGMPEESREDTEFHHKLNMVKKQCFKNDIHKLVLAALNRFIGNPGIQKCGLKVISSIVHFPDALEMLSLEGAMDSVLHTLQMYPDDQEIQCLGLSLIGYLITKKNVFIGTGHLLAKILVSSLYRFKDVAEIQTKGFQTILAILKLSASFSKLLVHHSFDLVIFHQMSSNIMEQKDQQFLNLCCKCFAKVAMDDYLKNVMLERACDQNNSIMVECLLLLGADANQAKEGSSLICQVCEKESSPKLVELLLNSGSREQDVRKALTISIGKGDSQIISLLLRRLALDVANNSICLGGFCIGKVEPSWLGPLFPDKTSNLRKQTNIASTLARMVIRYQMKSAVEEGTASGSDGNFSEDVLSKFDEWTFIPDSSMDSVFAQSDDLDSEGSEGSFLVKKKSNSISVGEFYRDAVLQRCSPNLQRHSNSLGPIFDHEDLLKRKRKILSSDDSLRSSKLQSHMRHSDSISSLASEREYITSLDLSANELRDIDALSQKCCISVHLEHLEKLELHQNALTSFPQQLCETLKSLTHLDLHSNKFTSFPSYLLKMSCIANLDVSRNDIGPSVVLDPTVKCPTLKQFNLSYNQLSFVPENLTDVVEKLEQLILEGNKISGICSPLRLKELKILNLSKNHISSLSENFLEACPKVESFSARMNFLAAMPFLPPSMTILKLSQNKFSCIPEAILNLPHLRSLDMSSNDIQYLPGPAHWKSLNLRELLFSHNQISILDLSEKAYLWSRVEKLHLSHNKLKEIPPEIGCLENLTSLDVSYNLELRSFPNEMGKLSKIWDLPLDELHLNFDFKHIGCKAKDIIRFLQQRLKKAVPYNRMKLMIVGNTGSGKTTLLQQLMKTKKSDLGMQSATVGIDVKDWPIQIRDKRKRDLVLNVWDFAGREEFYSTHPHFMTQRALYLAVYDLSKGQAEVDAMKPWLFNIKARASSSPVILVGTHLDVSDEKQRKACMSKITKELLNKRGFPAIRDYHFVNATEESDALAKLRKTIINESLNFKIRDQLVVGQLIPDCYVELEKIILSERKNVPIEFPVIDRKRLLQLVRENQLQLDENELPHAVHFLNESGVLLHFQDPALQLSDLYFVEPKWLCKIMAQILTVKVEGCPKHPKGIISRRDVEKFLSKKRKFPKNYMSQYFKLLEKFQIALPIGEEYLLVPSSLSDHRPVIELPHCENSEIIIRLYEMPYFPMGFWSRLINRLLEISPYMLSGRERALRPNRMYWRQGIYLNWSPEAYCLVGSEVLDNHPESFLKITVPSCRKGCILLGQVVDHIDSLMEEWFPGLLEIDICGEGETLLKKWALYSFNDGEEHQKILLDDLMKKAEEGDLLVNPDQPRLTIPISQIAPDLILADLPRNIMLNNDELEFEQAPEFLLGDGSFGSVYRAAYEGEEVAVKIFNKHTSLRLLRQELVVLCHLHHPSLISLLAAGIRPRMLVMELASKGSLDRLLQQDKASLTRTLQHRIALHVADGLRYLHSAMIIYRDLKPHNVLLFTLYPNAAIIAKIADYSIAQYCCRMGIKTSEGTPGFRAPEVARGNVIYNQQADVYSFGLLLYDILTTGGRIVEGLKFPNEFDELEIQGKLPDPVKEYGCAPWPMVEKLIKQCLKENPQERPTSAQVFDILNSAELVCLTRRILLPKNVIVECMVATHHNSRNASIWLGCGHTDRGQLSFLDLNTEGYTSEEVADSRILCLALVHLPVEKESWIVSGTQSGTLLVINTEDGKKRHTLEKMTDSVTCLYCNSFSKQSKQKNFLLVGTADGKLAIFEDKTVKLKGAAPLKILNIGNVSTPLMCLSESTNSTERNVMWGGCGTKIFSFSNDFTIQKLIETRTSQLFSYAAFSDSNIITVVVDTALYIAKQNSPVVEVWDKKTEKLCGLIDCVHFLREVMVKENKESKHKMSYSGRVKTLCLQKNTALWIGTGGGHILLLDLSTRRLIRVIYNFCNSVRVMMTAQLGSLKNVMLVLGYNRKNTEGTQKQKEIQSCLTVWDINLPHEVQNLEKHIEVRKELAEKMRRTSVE

[2] = A549 cytotoxicity assay (CellTiter-Glo); assay type: cell-based; conditions: human, A549 cells, 3 days of incubation
Procedure: Example D. A549 Cytotoxicity Assay Used to Determine Safety of the LRRK2 Inhibitors
A549 (ATCC, CCL-185) cells were seeded at a density of 4000 cells per well in a 384-well clear bottom plate (Greiner Cat #781090) in 45 μL total volume of the complete cell culture medium DMEM (PanEco, Cat #C420, Russia) with 10% FBS (HyClone Cat #SV30160.03). The cells were allowed to adhere overnight at 37° C., 5% CO2. The 500× compounds solutions in DMSO (Sigma Cat #D2650) were prepared in the compounds plate (Diamond Well Plate, Axigen, Cat #P-384-120SQ-C-S) and DMSO as a vehicle control was included. The 1 μL aliquot of 500× compounds (Compounds plate) was added to the 49 μL culture medium in the Dilution plate (Diamond Well Plate, Axigen, Cat #P-384-120SQ-C-S), mixed and then the 5 μL aliquots of the 10× compounds solutions was transferred to cells followed by centrifugation at 100 g for 1 min. Final DMSO concentration was 0.2%. After 3 days of incubation the 10 μL per well of CellTiter-Glo (Promega, CAT #G7572) was added to the cells, plate was centrifuged at 100 g for 1 min. The luminescence signal was detected with CLARIOstar Plus (BMG LABTECH) microplate reader.

LRRK2 WT [3] = target: T2, LRRK2 WT (Homo sapiens, UniProt Q5S007); test: Enzymatic activity inhibition against LRRK2 WT (ADP-Glo kinase assay, LRRKtide substrate); assay type: biochemical; set-up: purchased SignalChem Biotech, Inc. L10-11G-10; conditions: recombinant LRRK2 WT 36 nM, ATP, 1 h at rt, average Ki
Procedure: Example B. Primary Assays Used to Determine Potency of the LRRK2 Inhibition
Assay for Determining Enzymatic Activity Inhibition Against LRRK2 WT.
Compound activity was determined using recombinant LRRK2 WT protein (SignalChem Biotech, Inc., Cat #L10-11G-10) and LRRKtide substrate (SignalChem Biotech, Inc., Cat #L10-58) in an in vitro enzymatic reaction. The enzymatic reaction was carried out in assay buffer (40 mM TRIS-HCl pH 7.4, 20 mM MgCl2, 0.05 mM DTT, 0.1 mg/mL BSA). The compounds were dispensed into a 384 well Diamond Well Plate (Axigen, Cat #P-384-120SQ-C-S) using the Biomek FX liquid handling system at 80× solutions of compounds in DMSO. The 2× Protein-Substrate mix (final concentration 36 nM of LRRK2 WT and 0.8 μg/μL of LRRKtide) was prepared in the 1× Assay buffer and 4 μL of mixture per well was added into the 384-well white Reaction plate with NBS (Corning, Cat #CLS4513). The 4 μL of LRRKtide substrate w/o LRRK2 WT in the 1× buffer was used for a negative control. Plates were centrifuged for 1 min at 200 g. Next the compounds were added to Reaction plate using Biomek station via following steps: 1 μL of 80× compounds (in DMSO) were mixed thoroughly with 39 μL of 2×10 μM ATP in Assay Buffer, then 4 μL of this mixture was added to Reaction plate with 4 μL of Protein-Substrate mix. Plates were centrifuged for 1 min at 200 g and incubated for 1 hour at rt. Then, 4 μL per well of ADP-Glo reagent (Promega, ADP-Glo™ Kinase Assay, Cat #V9102) was added. Plates were incubated for 30 minutes at rt. Then, 8 μL per well of Kinase detection reagent (Promega, ADP-Glo™ Kinase Assay, Cat #V9102) was added and the luminescence signal was measured with a microplate reader. The % inhibition was then used to calculate the Ki values. The average Ki values are shown in Table B, wherein “A” corresponds to Ki<10.0 nM, “B” corresponds to 10.0 nM K Ki<20.0 nM, “C” 20.0 nM K Ki<50.0 nM, “D” corresponds to 50.0 nM K Ki<100.0 nM and “E” corresponds to Ki>100.0 nM.
Target sequence in this assay (Q5S007 970-2527 limits assumed): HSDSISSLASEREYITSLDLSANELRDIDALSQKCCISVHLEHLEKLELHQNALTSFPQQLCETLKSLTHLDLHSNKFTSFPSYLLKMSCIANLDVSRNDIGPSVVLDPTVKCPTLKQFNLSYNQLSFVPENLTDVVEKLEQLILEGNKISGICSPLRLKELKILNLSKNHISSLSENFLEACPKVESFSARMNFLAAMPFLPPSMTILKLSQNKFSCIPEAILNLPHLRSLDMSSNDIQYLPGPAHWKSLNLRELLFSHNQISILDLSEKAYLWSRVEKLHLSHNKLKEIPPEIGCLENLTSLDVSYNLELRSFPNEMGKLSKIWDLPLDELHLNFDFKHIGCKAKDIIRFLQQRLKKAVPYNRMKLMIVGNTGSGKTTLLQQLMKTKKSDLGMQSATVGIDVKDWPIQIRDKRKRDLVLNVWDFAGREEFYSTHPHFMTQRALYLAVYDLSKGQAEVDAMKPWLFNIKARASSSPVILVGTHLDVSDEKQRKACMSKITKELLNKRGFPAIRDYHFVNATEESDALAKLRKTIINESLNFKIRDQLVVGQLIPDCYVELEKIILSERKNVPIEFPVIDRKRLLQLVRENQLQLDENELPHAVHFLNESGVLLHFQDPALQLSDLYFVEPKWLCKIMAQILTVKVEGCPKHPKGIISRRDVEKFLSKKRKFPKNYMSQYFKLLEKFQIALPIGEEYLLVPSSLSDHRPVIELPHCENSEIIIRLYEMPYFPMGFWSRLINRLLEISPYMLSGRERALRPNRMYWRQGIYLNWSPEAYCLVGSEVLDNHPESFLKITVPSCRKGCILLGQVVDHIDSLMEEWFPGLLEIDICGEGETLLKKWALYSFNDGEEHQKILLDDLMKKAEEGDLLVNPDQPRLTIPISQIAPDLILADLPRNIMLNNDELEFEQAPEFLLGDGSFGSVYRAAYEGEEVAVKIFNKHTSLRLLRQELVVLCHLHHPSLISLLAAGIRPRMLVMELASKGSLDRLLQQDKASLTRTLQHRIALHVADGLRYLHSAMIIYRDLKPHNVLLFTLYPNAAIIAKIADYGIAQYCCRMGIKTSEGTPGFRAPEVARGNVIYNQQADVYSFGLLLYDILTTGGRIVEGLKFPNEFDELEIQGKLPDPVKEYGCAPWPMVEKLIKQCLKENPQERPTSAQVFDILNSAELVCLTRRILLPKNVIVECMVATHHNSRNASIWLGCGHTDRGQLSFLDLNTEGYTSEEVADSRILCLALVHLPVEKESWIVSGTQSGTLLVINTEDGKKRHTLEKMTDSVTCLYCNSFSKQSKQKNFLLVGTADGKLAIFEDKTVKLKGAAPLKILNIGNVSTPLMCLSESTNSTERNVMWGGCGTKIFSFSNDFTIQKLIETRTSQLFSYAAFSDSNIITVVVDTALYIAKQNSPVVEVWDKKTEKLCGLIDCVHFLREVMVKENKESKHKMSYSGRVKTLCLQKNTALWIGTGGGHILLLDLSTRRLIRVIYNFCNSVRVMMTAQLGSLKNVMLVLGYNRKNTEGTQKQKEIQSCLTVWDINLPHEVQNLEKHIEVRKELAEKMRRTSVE

LRRK2[G2019S] [4] = target: T1, LRRK2[G2019S]; test: Enzymatic activity inhibition against LRRK2[G2019S] (ADP-Glo kinase assay, LRRKtide substrate); assay type: biochemical; set-up: purchased SignalChem Biotech, Inc. L10-12GG-10; conditions: recombinant LRRK2[G2019S] 36 nM, ATP, 1 h at rt, average Ki
Procedure: Example A. Primary Assays Used to Determine Potency of the LRRK2 Inhibition
Assay for Determining Enzymatic Activity Inhibition Against LRRK2[G2019S].
Compound activity was determined using recombinant LRRK2[G2019S] protein (SignalChem Biotech, Inc., Cat #L10-12GG-10) and LRRKtide substrate (SignalChem Biotech, Inc., Cat #L10-58) in an in vitro enzymatic reaction. The enzymatic reaction was carried out in assay buffer (40 mM TRIS-HCl pH 7.4, 20 mM MgCl2, 0.05 mM DTT, 0.1 mg/mL BSA). The compounds were dispensed into a 384 well Diamond Well Plate (Axigen, Cat #P-384-120SQ-C-S) using the Biomek FX liquid handling system at the 80× solutions of compounds in DMSO. The 2× Protein-Substrate mix (final concentration 36 nM of LRRK2[G2019S] and 0.8 μg/μL of LRRKtide) was prepared in 1× Assay buffer and 4 μL of mixture per well was added into the 384-well white Reaction plate with NBS (Corning, Cat #CLS4513). The 4 μL of LRRKtide substrate w/o LRRK2[G2019S] in the 1× buffer was used for a negative control. Plates were centrifuged for 1 min at 200 g. Next the compounds were added to the reaction plate using Biomek station via following steps: 1 μL of 80× compounds (in DMSO) were mixed thoroughly with 39 μL of 2×10 μM ATP in Assay Buffer, then 4 μL of this mixture was added to Reaction plate with 4 μL of Protein-Substrate mix. Plates were centrifuged for 1 min at 200 g and incubated for 1 h at rt. Then, 4 μL per well of ADP-Glo reagent (Promega, ADP-Glo™ Kinase Assay, Cat #V9102) was added. Plates were incubated for 30 min at rt. Then, 8 μL per well of Kinase detection reagent (Promega, ADP-Glo™ Kinase Assay, Cat #V9102) was added and the luminescence signal was measured with a microplate reader. The luminescence signal was detected with CLARIOstar Plus (BMG LABTECH) microplate reader. The % inhibition was then used to calculate the Ki values. The average Ki values are shown in Table A, wherein “A” corresponds to Ki<5.0 nM, “B” corresponds to 5.0 nM≤Ki<10.0 nM, “C” 10.0 nM≤Ki<50.0 nM, “D” corresponds to 50.0 nM≤Ki<100.0 nM and “E” corresponds to Ki>100.0 nM.
Target sequence in this assay (Q5S007 970-2527 G2019S limits assumed): as the sequence (Q5S007 970-2527 limits assumed) above, with G1050S counted along it

LRRK2 WT [5] = target: T2, LRRK2 WT; test: Cell-based NanoBRET target engagement assay in HEK293 cells transfected with LRRK2 WT-NanoLuc fusion vector; set-up: expressed in transfected cells; host or cells: HEK293 (ATCC); conditions: compound treatment 1 h
Procedure, shortened: as §1
Target sequence in this assay (Q5S007 whole entry): as the sequence (Q5S007 whole entry G2019S, the tested form may be a part) above, with S2019G counted along it

| IC50 (LRRK2[G2019S] [1]) [nM] | Ki (LRRK2 WT [3]) [nM] | Ki (LRRK2[G2019S] [4]) [nM] | IC50 (LRRK2 WT [5]) [nM] | SMILES | CC50 at 3 days [2] [nM] |
| --- | --- | --- | --- | --- | --- |
| ≤ 50 | ≤ 10 | ≤ 5 | ≤ 50 | Cn1nc(-c2n[nH]c3ccc(OC4(C)CC4)cc23)cc(N2CCOCC2)c1=O [Compound 27, 2-methyl-6-[5-(1-methylcyclopropoxy)-1H-indazol-3-yl]-4-morpholino-pyridazin-3-one] | > 27000 |
| ≤ 50 | ≤ 10 | ≤ 5 | ≤ 50 | Cn1nc(-c2n[nH]c3ccc(OC4(C)CC4)cc23)cc(N2CCCC(F)(F)C2)c1=O [Compound 54, 4-(3,3-difluoro-1-piperidyl)-2-methyl-6-[5-(1-methylcyclopropoxy)-1H-indazol-3-yl]pyridazin-3-one] | > 10000 |
| ≤ 50 | ≤ 10 | ≤ 5 | ≤ 50 | CC(C)Oc1ccc2[nH]nc(-c3cc(N4CCCC4)c(=O)n(C)n3)c2c1 [Compound 44, 6-(5-isopropoxy-1H-indazol-3-yl)-2-methyl-4-pyrrolidin-1-yl-pyridazin-3-one] | > 10000 |
| ≥ 100 | 10 to 20 | 5 to 10 | ≥ 100 | CC(C)Oc1ccc2[nH]nc(-c3cnnc(N4CCC(O)C4)c3)c2c1 (stereo in doubt) [Compound 2, (R)-1-(5-(5-isopropoxy-1H-indazol-3-yl)pyridazin-3-yl)pyrrolidin-3-ol] | > 10000 |

| SMILES | IC50 (LRRK2[G2019S] [1]) [nM] | Ki (LRRK2 WT [3]) [nM] | Ki (LRRK2[G2019S] [4]) [nM] | IC50 (LRRK2 WT [5]) [nM] | CC50 at 3 days [2] [nM] |
| --- | --- | --- | --- | --- | --- |
| Cn1nc(-c2n[nH]c3ccc(OC4(C)CC4)cc23)cc(N2CCC3(CCC3)C2)c1=O [Compound 56, 4-(6-azaspiro[3.4]octan-6-yl)-2-methyl-6-[5-(1-methylcyclopropoxy)-1H-indazol-3-yl]pyridazin-3-one] | ≤ 50 | ≤ 10 | ≤ 5 | ≤ 50 | > 10000 |
